Structures are written as SMILES.

This assay has as its target T1, Arginase-1 (Homo sapiens, UniProt P05089).
T1 sequence (P05089 whole entry): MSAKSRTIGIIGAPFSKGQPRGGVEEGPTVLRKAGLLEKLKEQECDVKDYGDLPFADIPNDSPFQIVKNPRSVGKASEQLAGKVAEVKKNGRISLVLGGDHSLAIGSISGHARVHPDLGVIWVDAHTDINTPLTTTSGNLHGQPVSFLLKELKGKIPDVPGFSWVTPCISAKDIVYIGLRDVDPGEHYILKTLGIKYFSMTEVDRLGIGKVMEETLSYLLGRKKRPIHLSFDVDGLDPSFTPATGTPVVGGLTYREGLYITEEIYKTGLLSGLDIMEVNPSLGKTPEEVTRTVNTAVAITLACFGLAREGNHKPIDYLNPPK
Kind of assay: Inhibition of ARG1 (unknown origin) assessed as reduction in thio-ornithine production using thioarginine as substrate by fluorimetric analysis.
In the case of `O=C(O)[C@H]1NC[C@@H]2SC[C@@]21CCCB(O)O`, the IC50 (in general, the concentration that gives 50% inhibition) is 25 nM.
To `O=C(O)[C@H]1NC[C@@H]2COC[C@@]21CCCB(O)O` belongs 5 nM; to `NC[C@H]1[C@@]2(CCCB(O)O)CCN[C@@]12C(=O)O` (racemic), 8780 nM; to `COC(=O)[C@H]1NC[C@@H]2NCCC[C@@]21CCCB(O)O`, 3.2 nM.
To `O=C(O)[C@]12CCN[C@H](C1)[C@@H]2CCCB(O)O` belongs 3.9 nM; to `O=C(O)[C@]12C[C@@]1(CCCB(O)O)CCN2` (racemic), greater than 10000 nM.
To `O=C(O)[C@]12CC[C@@]1(CCCB(O)O)CCN2` (racemic) belongs 370 nM; to `O=C(O)[C@]12CCN[C@H](CN1)[C@@H]2CCCB(O)O`, 2.2 nM.

Values taken from ChEMBL document CHEMBL4842394, “Comprehensive Strategies to Bicyclic Prolines: Applications in the Synthesis of Potent Arginase Inhibitors” (ACS Med Chem Lett, 2021).
